Laboratory results reported in ChEMBL document CHEMBL1146796, “Design, synthesis and cytotoxic studies on the simplified oxy analog of eleutherobin” (2004).

Legend:
[1] = system: HBL-100; test: (§1) Cytotoxic effect against HBL-100 (human breast cancer cell lines) by MTT assay at 10 ug concentration; assay type: functional, cell-based
[2] = system: HBL-100; test: Cytotoxic effect against HBL-100 (human breast cancer cell lines) by MTT assay at 100 ug concentration; assay type: functional
[3] = system: HBL-100; test: as §1; assay type: functional

## CC1(C)O[C@@H]2[C@H](O1)[C@@H]1OCc3ccccc3C[C@@H](O)[C@H]2O1
[1]
  Absorbance: 0.153
[2]
  Asorbance: 0.081
  Inhibition: 63.3%
  Viability: 36.69%
[3]
  Inhibition: 30.62%
  Viability: 69.37%
